# Target: T1, human OX2R (Homo sapiens, UniProt O43614)
# T1 construct: expressed in transfected cells; host or cells: CHO (Chinese hamster ovary) cells, line CHOOX2R, also expressing NFAT-luciferase
# T1 sequence (O43614 1-444): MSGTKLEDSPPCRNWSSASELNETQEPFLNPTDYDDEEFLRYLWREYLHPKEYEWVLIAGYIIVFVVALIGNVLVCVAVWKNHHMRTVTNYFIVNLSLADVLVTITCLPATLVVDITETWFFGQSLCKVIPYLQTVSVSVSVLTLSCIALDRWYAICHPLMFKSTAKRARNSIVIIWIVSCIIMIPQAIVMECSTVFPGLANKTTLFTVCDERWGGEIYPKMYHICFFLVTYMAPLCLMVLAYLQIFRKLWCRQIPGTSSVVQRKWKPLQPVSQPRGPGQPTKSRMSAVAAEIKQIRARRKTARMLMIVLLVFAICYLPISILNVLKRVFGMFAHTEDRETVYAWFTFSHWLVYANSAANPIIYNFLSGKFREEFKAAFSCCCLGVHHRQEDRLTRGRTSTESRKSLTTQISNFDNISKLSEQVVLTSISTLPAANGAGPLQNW
# Assay: Evaluation of agonist activity against OX2R (intracellular calcium, Fura-2AM, FDSS7000, CHOOX2R cells)
# Format: cell-based
# Conditions: CHO cells expressing human OX2R; calcium fluorescence ratio 340/380 nm; 10^-11.5 M to 10^-5 M
# Experimental: Evaluation of Agonist Activity Against OX2R
# NAFT-luciferase gene and human OX2R gene were constitutively expressed in CHO cell, which is a cell line derived from Chinese hamster ovary to establish a cell line (CHOOX2R). The cells were seeded in a 96-well Multiplate at 10,000 cells/well and cultured in a 5% FBS (Thermo Scientific)-added DMEM medium (Sigma-Aldrich) for 48 hr. The medium was removed, an assay buffer (20 mM HEPES (Sigma-Aldrich), Hanks' balanced salt solution (Gibco), 0.1% BSA (Sigma-Aldrich), 2.5 mM probenecid acid (Wako Pure Chemical Industries, Ltd.)) (100 μL) containing 4 μM Fura-2AM (Cayman Chemical) was added, and the cells were incubated for 60 min. The buffer containing Fura-2AM was removed, and an assay buffer (75 μL) was added. An assay buffer (25 μL) containing a test compound was added thereto to start the reaction. Changes in the intracellular calcium ion concentration due to the reaction were measured by measuring the fluorescence intensity ratio by dual wavelength excitation at 340 and 380 nm, by using FDSS7000 (Hamamatsu Photonics K.K.). The test compound was dissolved in DMSO to 10 mM, and diluted with the assay buffer to a final concentration of 10^−11.5 M to 10^−5 M (final concentration of DMSO 1%).
row,EC50 [nM],SMILES
1,0.61,"CCCc1ccc(N2CCCN(c3cccc(NS(=O)(=O)c4cc(-c5cccc(C(=O)N(C)C)c5)ccc4OC)c3)C2=O)cc1 [Example 1, 4′-methoxy-N,N-dimethyl-3′-(N-(3-(2-oxo-3-(4-propylphenyl)tetrahydropyrimidin-1(2H)-yl)phenyl)sulfamoyl)-[1,1′-biphenyl]-3-carboxamide]"
2,5.12,COc1ccc(-c2cccc(C(=O)N(C)C)c2)cc1S(=O)(=O)Nc1cccc(N2CCCN(c3ccc(C)cc3)C2=O)c1 [Example 2]
3,3.1,CCc1ccc(N2CCCN(c3cccc(NS(=O)(=O)c4cc(-c5cccc(C(=O)N(C)C)c5)ccc4OC)c3)C2=O)cc1 [Example 3]
4,3.3,COc1ccc(-c2cccc(C(=O)N(C)C)c2)cc1S(=O)(=O)Nc1cccc(N2CCCN(c3ccc(C(C)C)cc3)C2=O)c1 [Example 4]
5,2.41,COc1ccc(N2CCCN(c3cccc(NS(=O)(=O)c4cc(-c5cccc(C(=O)N(C)C)c5)ccc4OC)c3)C2=O)cc1 [Example 5]
6,2.87,"CCOc1ccc(N2CCCN(c3cccc(NS(=O)(=O)c4cc(-c5cccc(C(=O)N(C)C)c5)ccc4OC)c3)C2=O)cc1 [Example 6, 3′-(N-(3-(3-(4-ethoxyphenyl)-2-oxotetrahydropyrimidin-1(2H)-yl)phenyl)sulfamoyl)-4′-methoxy-N,N-dimethyl-[1,1′-biphenyl]-3-carboxamide]"
7,20,COc1ccc(-c2cccc(C(=O)N(C)C)c2)cc1S(=O)(=O)Nc1cccc(N2CCCN(c3ccc(OCC(F)(F)F)cc3)C2=O)c1 [Example 9]
8,65.9,COc1ccc(-c2cccc(C(=O)N(C)C)c2)cc1S(=O)(=O)Nc1cccc(N2CCCN(c3ccc(OCC(C)C)cc3)C2=O)c1 [Example 10]
9,> 500,CCCCCCCCOc1ccc(N2CCCN(c3cccc(NS(=O)(=O)c4cc(-c5cccc(C(=O)N(C)C)c5)ccc4OC)c3)C2=O)cc1 [Example 11]
10,217,"COc1ccc(-c2cccc(C(=O)N(C)C)c2)cc1S(=O)(=O)Nc1cccc(N2CCCN(c3ccc(Oc4ccccc4)cc3)C2=O)c1 [Example 12, 4′-methoxy-N,N-dimethyl-3′-(N-(3-(2-oxo-3-(4-phenoxyphenyl)tetrahydropyrimidin-1(2H)-yl)phenyl)sulfamoyl)-[1,1′-biphenyl]-3-carboxamide]"
11,7.52,"CCCCc1ccc(N2CCCN(c3cccc(NS(=O)(=O)c4cc(-c5cccc(C(=O)N(C)C)c5)ccc4OC)c3)C2=O)cc1 [Example 13, 3′-(N-(3-(3-(4-butylphenyl)-2-oxotetrahydropyrimidin-1(2H)-yl)phenyl)sulfamoyl)-4′-methoxy-N,N-dimethyl-[1,1′-biphenyl]-3-carboxamide]"
12,140,COc1ccc(-c2cccc(C(=O)N(C)C)c2)cc1S(=O)(=O)Nc1cccc(N2CCCN(c3ccc(-c4ccccc4)cc3)C2=O)c1 [Example 14]
13,> 500,CCCCCCCCc1ccc(N2CCCN(c3cccc(NS(=O)(=O)c4cc(-c5cccc(C(=O)N(C)C)c5)ccc4OC)c3)C2=O)cc1 [Example 15]
14,0.843,"[2H]C([2H])([2H])Oc1ccc(-c2cccc(C(=O)N(C)C)c2)cc1S(=O)(=O)Nc1cccc(N2CCCN(c3ccc(CCC)cc3)C2=O)c1 [Example 16, 4′-(methoxy-d3)-N,N-dimethyl-3′-(N-(3-(2-oxo-3-(4-propylphenyl)tetrahydropyrimidin-1(2H)-yl)phenyl)sulfamoyl)-[1,1′-biphenyl]-3-carboxamide]"
15,395,"CCCc1ccc(N2CCCN(c3cccc(NS(=O)(=O)c4cc(-c5cccc(C(=O)N(C)C)c5)ccc4OC(F)(F)F)c3)C2=O)cc1 [Example 17, N,N-dimethyl-3′-(N-(3-(2-oxo-3-(4-propylphenyl)tetrahydropyrimidin-1(2H)-yl)phenyl)sulfamoyl)-4′-(trifluoromethoxy)-[1,1′-biphenyl]-3-carboxamide]"
16,6.31,"CCCc1ccc(N2CCCN(c3cccc(NS(=O)(=O)c4cc(C5CNC(=O)C5)ccc4OC)c3)C2=O)cc1 (stereo not shown) [Example 18, 2-methoxy-N-(3-(2-oxo-3-(4-propylphenyl)tetrahydropyrimidin-1(2H)-yl)phenyl)-5-(5-oxopyrrolidin-3-yl)benzenesulfonamide]"
17,19.6,"CCCc1ccc(N2CCCN(c3cccc(NS(=O)(=O)c4cc(C(C)C)ccc4OC)c3)C2=O)cc1 [Example 19, 5-isopropyl-2-methoxy-N-(3-(2-oxo-3-(4-propylphenyl)tetrahydropyrimidin-1(2H)-yl)phenyl)benzenesulfonamide]"
18,41.4,COc1ccc(C(C)C)cc1S(=O)(=O)Nc1cccc(N2CCCN(c3ccc(C(C)C)cc3)C2=O)c1 [Example 20]
19,81.7,COc1ccc(N2CCCN(c3cccc(NS(=O)(=O)c4cc(C(C)C)ccc4OC)c3)C2=O)cc1 [Example 21]
20,38.1,CCOc1ccc(N2CCCN(c3cccc(NS(=O)(=O)c4cc(C(C)C)ccc4OC)c3)C2=O)cc1 [Example 22]

# System: C57BL/6J lineage wild-type (WT) mice
# Assay: Awakening effect of oral administration (light period) to wild-type mice (EEG/EMG)
# Format: in vivo, mouse
# Conditions: ZT6 light period, 0.625 mg/kg-25 mg/kg, versus control MC, 60, 120, 180 min after administration, n=3
# Source text: Awakening Effect of Oral Administration (Light Period) of Test Compound to Wild-Type Mice
# As the test compound, the compound of Example 1 was used.
# C57BL/6J lineage wild-type (WT) mice, and orexin receptor-deficient mice (DKO mice) (both males) as a negative control were used as experimental animals. The mice (9 to 35 weeks of age) underwent surgery for embedding electroencephalogram electrodes into the skull (Bregma: X=1.5; Y=0.6, Lambda: X=1.5; Y=0) and inserting electromyogram electrodes into the trapezius muscle under isoflurane anesthesia. Two weeks postoperation were the recovery period and acclimation period to the electroencephalogram/electromyogram measurement cage, after which administration and measurement were performed. To prepare a suspension for oral administration of the test compound, the compound was grinded in an agate mortar for 20 min and sufficiently stirred while adding a small amount of 0.5% methylcellulose aqueous solution (MC). The suspension (100 μL) was dispensed into an oral gavage needle. […]
# To the WT mice were orally administered 100 μL each of the control MC or the test compound during the light period (ZT6) in the sleep period. […] DKO mice were also evaluated by a similar method, in which MC or a test compound (5 mg/kg) was orally administered, and electroencephalogram and electromyogram were measured for 3 hr after the administration. […]
row,SMILES,awakening time (awakening prolonging effect)
1,"CCCc1ccc(N2CCCN(c3cccc(NS(=O)(=O)c4cc(-c5cccc(C(=O)N(C)C)c5)ccc4OC)c3)C2=O)cc1 [Example 1, 4′-methoxy-N,N-dimethyl-3′-(N-(3-(2-oxo-3-(4-propylphenyl)tetrahydropyrimidin-1(2H)-yl)phenyl)sulfamoyl)-[1,1′-biphenyl]-3-carboxamide]",significantly prolonged the awakening time and increased the awakening time in a dose-dependent manner

# System: orexin receptor-deficient mice (DKO mice)
# Assay: Awakening effect of oral administration to orexin receptor-deficient mice (DKO mice), negative control (EEG/EMG)
# Format: in vivo, mouse
# Conditions: oral 5 mg/kg, versus control MC, measured 3 hr after administration, n=3
# Source text: C57BL/6J lineage wild-type (WT) mice, and orexin receptor-deficient mice (DKO mice) (both males) as a negative control were used as experimental animals. The mice (9 to 35 weeks of age) underwent surgery for embedding electroencephalogram electrodes into the skull (Bregma: X=1.5; Y=0.6, Lambda: X=1.5; Y=0) and inserting electromyogram electrodes into the trapezius muscle under isoflurane anesthesia. Two weeks postoperation were the recovery period and acclimation period to the electroencephalogram/electromyogram measurement cage, after which administration and measurement were performed. To prepare a suspension for oral administration of the test compound, the compound was grinded in an agate mortar for 20 min and sufficiently stirred while adding a small amount of 0.5% methylcellulose aqueous solution (MC). The suspension (100 μL) was dispensed into an oral gavage needle. The suspensions were prepared 30 min before administration.
# To the WT mice were orally administered 100 μL each of the control MC or the test compound during the light period (ZT6) in the sleep period. The test compound was administered at concentrations of 0.625 mg/kg-25 mg/kg according to the stage. DKO mice were also evaluated by a similar method, in which MC or a test compound (5 mg/kg) was orally administered, and electroencephalogram and electromyogram were measured for 3 hr after the administration. […]
row,SMILES,awakening time (awakening prolonging effect)
1,"CCCc1ccc(N2CCCN(c3cccc(NS(=O)(=O)c4cc(-c5cccc(C(=O)N(C)C)c5)ccc4OC)c3)C2=O)cc1 [Example 1, 4′-methoxy-N,N-dimethyl-3′-(N-(3-(2-oxo-3-(4-propylphenyl)tetrahydropyrimidin-1(2H)-yl)phenyl)sulfamoyl)-[1,1′-biphenyl]-3-carboxamide]",no significant difference in the awakening time

# From patent publication US11673867B2, “Sulfonamide derivative or pharmaceutically acceptable acid-addition salt” (University of Tsukuba, priority 2017, dated 2023)
